The values that follow come from US11471502B2, “Neuroprotective peptide” (UNIVERSITY COLLEGE CARDIFF C[…], priority 2017, dated 2022).

For one experiment, the system named is ERK1/2. In words: Ex vivo acute striatal slices, glutamate stimulation, Western blot for phospho ERK. The format is cell-based, mouse. Particulars: 50 μM peptide; for ERK2 activation (phosphorylation of ERK2) / pERK1 (phospho-ERK1) level: glutamate 100 μM 10 min, vs scramble. On the procedure: a) RB5 peptide selectively promoted activation of ERK2. Acute striatal slices either pre-treated with Scramble (SCR) or RB5 peptide (50 μM) and then stimulated 10 minutes with glutamate (GLU) (100 μM) or vehicle were analysed in Western blot (left panel) and probed with anti phospho ERK antibodies (p44^ERK1 and p42^ERK2) and anti ERK1/2 antibody. GAPDH was used as loading control. […] No changes were detected in the total ERK1 and ERK2 levels. GAPDH was used as loading control. […] Mice injected with a single dose of CPP-SCR or CPP-RB5 peptides (20 mg/kg, i.p.) were rapidly perfused 1 h later and brains were dissected and further analysed for IHC and immunofluorescence. Representative photomicrographs of pERK1/2, pMSK, pAch3, pELK1 and c-Fos expression in the striatum. […] Two-way ANOVA Bonferroni post hoc comparison: one black star, p<0.05, two black stars, p<0.01, one white star, p<0.001. p) Dose response curve of RB5 peptide for ERK activation. 200 μm thick striatal slices were freshly prepared from 2-month old mice and transferred into a perfusion chamber for 1 h at 32° C. Slices were pre-treated with different doses of RB5 or scrambled control. After 1 h, slices for each dose was fixed in PFA 4% for 15 min. 18 μm cryo-sections were processed for immunohistochemistry with anti-phospho p44/p42 MAP kinase. Neuronal quantification was performed with ImageJ software by counting the number of phospho-ERK positive cells in each slice. The level of activation is expressed on the Y-axis as arbitrary units (AU). Doses are reported in a logarithmic scale (Log 10) on the X-axis. The EC50 was calculated using GraphPad Prism software.
Adult mice were anesthetized and decapitated. The brains were rapidly removed from the skull and put on a cool glass plate filled with ice-cold sucrose-based dissecting solution (87 mM NaCl, 2.5 mM KCl, 7 mM MgCl2, 1 mM NaH2PO4, 75 mM sucrose, 25 mM NaHCO3, 10 mM D-glucose, 0.5 mM CaCl2), 2 mM kynurenic acid) and oxygenated with 95% O2 and 5% CO2 and subsequently mounted on the vibratome stage (Vibratome, VT1000S-Leica Microsystems). 200 μm-thick slices were cut and transferred into the brain slice chamber (Brain slice chamber-BSC1—Scientific System design Inc., Mississauga, ON, Canada) and allowed to recover for 1 h at 32° C., with a constant perfusion of carboxygenated artificial cerebrospinal fluid (ACSF) in the presence of the Scramble or RB5 peptide (50 μM). Brain slice stimulation was performed with 100 μM glutamate in the chamber for 10 min. After rapid fixation in 4% PFA for 15 min at room temperature, slices were rinsed and the cryoprotected overnight at 4° C. in sucrose solution. On the following day slices were further cut in thinner slices of 18 μm using cryostat (Leica CM1850) and collected onto SuperFrost Plus slides (Thermo Scientific).
Mice were sacrificed by decapitation and brain slices were freshly prepared according to the above ex-vivo system protocol and incubated in a perfusing chamber with the peptides. After stimulation with glutamate or saline, slices were then homogenised and used for protein determination using a DC Protein Assay kit (Bio-rad). Equal amounts of protein (5 or 10 μg, depending on the target protein) for each sample were loaded onto 12% polyacrylamide gels. Proteins were separated onto SDS/PAGE and transferred to nitrocellulose membranes. After incubation for 1 hr in blocking solution (TBS1λ, 0.1% Tween), membranes were incubated overnight with anti ERK2 (K-23):sc-153 (1:1000 Santa Cruz Biotechnology, Dallas, Tex.), phospho-p42-44 Map Kinase (Thr202/[…]) (1:1000 Cell Signalling Technology, Danvers, Mass.) and anti-GAPDH (FL-335): sc-25778 (1:1000 Santa Cruz Biotechnology, Dallas, Tex.). The immunoblots were analysed with ImageJ software to measure the optical density of the bands. The levels of each protein were normalized on the GAPDH loading control.
On the technique in general: A western blot detects proteins with antibodies after separation by electrophoresis.

For the next experiment, the system named is zQ175 mice. In words: Nose poke training (FR1) in 9-hole operant boxes, zQ175 model of Huntington's Disease. The format is in vivo, mouse. On the procedure: WT and zQ175 mice underwent daily 20 minutes nose poke training for 10 consecutive days (days 1-10) on a simple fixed ratio (FR1) schedule of reinforcement. Starting from day 11 mice received one administration of RB5 (20 mg/kg. i.p.) 1 h before the nose poke training. […] White star P<0.0001.
Operant testing was conducted in 16 9-hole operant boxes. Each operant box contains a horizontal array of nine holes with infrared beams localised to the front of each hole to detect nose pokes. A peristaltic pump delivers liquid reinforcement (strawberry milk) into a magazine at the front of the box.
A week before starting the training, mice undergo water restriction for 18 hours/day and are kept under this regimen throughout the experimental procedures. Mice are taught to nose poke on a simple fixed ratio (FR1) schedule of reinforcement: to obtain reward, mice are required to respond to a stimulus light in the central hole via a single nose poke. Mice are trained daily on this program during 20 minutes sessions for 10 days (training phase). Once trained, animals were subdivided in 4 groups and injected with RB5 or scramble (10 mg/kg, i.p.) peptides 1 hour before being tested on FR1 schedule for other 9 days.

“Also recorded” adds a separate entry of the source.

“GRKKRRQRRRPPQGGGGGEPRRTEGVGPGVPGEVEMVKGQPFDV (listed as Homo sapiens) [CPP-RB5]”: in the experiment with ERK1/2, the “total ERK1 and ERK2 levels” value was “no changes”; the “ERK2 activation (phosphorylation of ERK2)” value is “selectively enhanced”; the “pERK1 (phospho-ERK1) level” value is reported as “equally increased”.
With `CSCC[C@H](NC(=O)[C@H](CCC(=O)O)NC(=O)[C@@H](NC(=O)[C@H](CCC(=O)O)NC(=O)CNC(=O)[C@@H]1CCCN1C(=O)[C@@H](NC(=O)CNC(=O)[C@@H]1CCCN1C(=O)CNC(=O)[C@@H](NC(=O)CNC(=O)[C@H](CCC(=O)O)NC(=O)[C@@H](NC(=O)[C@H](CCCNC(=N)N)NC(=O)[C@H](CCCNC(=N)N)NC(=O)[C@@H]1CCCN1C(=O)[C@H](CCC(=O)O)NC(=O)CNC(=O)CNC(=O)CNC(=O)CNC(=O)CNC(=O)[C@H](CCC(N)=O)NC(=O)[C@@H]1CCCN1C(=O)[C@@H]1CCCN1C(=O)[C@H](CCCNC(=N)N)NC(=O)[C@H](CCCNC(=N)N)NC(=O)[C@H](CCCNC(=N)N)NC(=O)[C@H](CCC(N)=O)NC(=O)[C@H](CCCNC(=N)N)NC(=O)[C@H](CCCNC(=N)N)NC(=O)[C@H](CCCCN)NC(=O)[C@H](CCCCN)NC(=O)[C@H](CCCNC(=N)N)NC(=O)CNC(C)=O)[C@@H](C)O)C(C)C)C(C)C)C(C)C)C(=O)N[C@H](C(=O)N[C@@H](CCCCN)C(=O)NCC(=O)N[C@@H](CCC(N)=O)C(=O)N1CCC[C@H]1C(=O)N[C@@H](Cc1ccccc1)C(=O)N[C@@H](CC(=O)O)C(=O)N[C@@H](C(=O)O)C(C)C)C(C)C` [RB5], in the experiment with ERK1/2, the “total ERK1 and ERK2 levels” value is reported as “No changes”; the “ERK2 activation (phosphorylation of ERK2)” value is recorded as “significantly higher”; the “pERK1 (phospho-ERK1) level” value is “equally increased”. Also, in the experiment on zQ175 mice (WT and zQ175 female mice, 9 days of RB5 treatment), the “nose poke performances / responses” value is listed as “significant enhancement of the responses; also recorded: improved performances”. Besides, the nose poke responding entry in the experiment with zQ175 mice (zQ175 female mice, 20 mg/kg i.p. 1 h before training from day 11) is reported as “significantly improved”.
